The test system of assay [1] is BMP signal in MDA-231-D-BREFluc/Rluc cells. As to the kind of experiment: BMP signal inhibitory effect (AlphaScreen SureFire SMAD1 p-Ser463/465, BMP-6 stimulation). It counts as cell-based. To be noted: BMP-6 stimulated MDA-231-D-BREFluc/Rluc cells, phospho-SMAD1 AlphaScreen; read-out: IC50. The method in brief:
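Read-out was phospho-SMAD1 (Ser463/465) by AlphaScreen SureFire after 30 min BMP-6 stimulation at 37° C. Before stimulation, MDA-231-D-BREFluc/Rluc cells were incubated with test compound at 37° C for 2 h.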
On the technique in general: In Alpha technology, singlet oxygen from a donor bead excites a nearby acceptor bead.

Another assay has as its target human ALK2 (Homo sapiens (Human), UniProt Q04771). As to the kind of experiment: ALK2 enzyme inhibitory effect (33P-ATP kinase assay, Reaction Biology). The class given is biochemical. To be noted: ALK2, 10 μM ATP, 20 μM casein. The text has this: (§1) ALK Enzyme Inhibitory Effect
(§2) Evaluation conditions were described in the following web pages. http://www.reactionbiology.corrilwebapps/site/Kinase_Assay_Protocol.aspx http://www.reactionbiology.corrilwebapps/site/KinaseDetail.aspx?page=Kinases&id=1

Another assay addresses human ALK3 (Homo sapiens (Human), UniProt P36894). Nature of the assay: ALK3 enzyme inhibitory effect (33P-ATP kinase assay, Reaction Biology). To be noted: for inhibition at 0.3 µM: ALK3, test compound 300 nM, read-out: Inhibition rate at 300 nM. The class given is biochemical.
Excerpt: as §1, §2

The next assay has as its target human ALK6 (Homo sapiens (Human), UniProt O00238). Nature of the assay: ALK6 enzyme inhibitory effect (33P-ATP kinase assay, Reaction Biology). The following applies: for inhibition at 0.3 µM: ALK6, test compound 300 nM, read-out: Inhibition rate at 300 nM. The class given is biochemical.
Excerpt: as §1, §2

SMILES strings stand for the structures.

Sequence of human ALK2 (Q04771 21-509): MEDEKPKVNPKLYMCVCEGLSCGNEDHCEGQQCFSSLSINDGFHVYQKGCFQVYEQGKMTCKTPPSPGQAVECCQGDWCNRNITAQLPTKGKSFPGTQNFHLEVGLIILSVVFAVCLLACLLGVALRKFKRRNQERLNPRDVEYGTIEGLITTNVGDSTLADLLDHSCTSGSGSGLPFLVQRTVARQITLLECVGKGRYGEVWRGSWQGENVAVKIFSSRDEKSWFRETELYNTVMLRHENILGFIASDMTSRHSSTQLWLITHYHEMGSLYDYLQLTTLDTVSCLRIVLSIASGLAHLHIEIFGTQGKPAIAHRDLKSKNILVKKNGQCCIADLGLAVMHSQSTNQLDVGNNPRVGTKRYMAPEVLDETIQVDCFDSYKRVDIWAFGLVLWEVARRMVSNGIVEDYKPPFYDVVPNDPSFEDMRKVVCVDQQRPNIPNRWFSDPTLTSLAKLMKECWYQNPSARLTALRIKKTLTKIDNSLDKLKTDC
Sequence of human ALK6 (O00238 14-502): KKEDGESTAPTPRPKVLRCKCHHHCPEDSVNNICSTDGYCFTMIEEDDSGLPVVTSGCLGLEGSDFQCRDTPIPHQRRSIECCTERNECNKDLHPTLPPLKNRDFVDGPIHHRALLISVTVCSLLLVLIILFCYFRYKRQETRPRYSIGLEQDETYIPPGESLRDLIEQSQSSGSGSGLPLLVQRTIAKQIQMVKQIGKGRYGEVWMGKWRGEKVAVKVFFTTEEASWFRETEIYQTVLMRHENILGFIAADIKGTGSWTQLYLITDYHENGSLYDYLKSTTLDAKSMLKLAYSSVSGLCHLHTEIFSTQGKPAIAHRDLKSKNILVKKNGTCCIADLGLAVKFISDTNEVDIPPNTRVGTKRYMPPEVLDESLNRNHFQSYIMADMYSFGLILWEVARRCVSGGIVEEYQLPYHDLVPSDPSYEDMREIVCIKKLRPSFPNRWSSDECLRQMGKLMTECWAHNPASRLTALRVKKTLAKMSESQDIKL
Sequence of human ALK3 (P36894 24-532): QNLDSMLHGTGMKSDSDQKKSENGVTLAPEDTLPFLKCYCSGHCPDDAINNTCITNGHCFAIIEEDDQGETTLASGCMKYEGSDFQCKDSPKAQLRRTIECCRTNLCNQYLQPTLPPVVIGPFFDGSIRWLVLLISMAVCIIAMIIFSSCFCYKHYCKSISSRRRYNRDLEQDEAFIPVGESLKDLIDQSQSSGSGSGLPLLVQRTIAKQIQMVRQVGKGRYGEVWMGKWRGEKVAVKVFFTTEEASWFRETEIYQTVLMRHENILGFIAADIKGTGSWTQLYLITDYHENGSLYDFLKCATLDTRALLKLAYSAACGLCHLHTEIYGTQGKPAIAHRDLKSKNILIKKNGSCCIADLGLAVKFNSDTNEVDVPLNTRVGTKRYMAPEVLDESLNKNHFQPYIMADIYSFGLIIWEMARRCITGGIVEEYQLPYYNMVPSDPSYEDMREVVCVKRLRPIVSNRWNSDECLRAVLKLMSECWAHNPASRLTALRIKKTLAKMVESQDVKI

As to `CCn1cc(-c2ccnc(Nc3ccc(N4CCNCC4)c(F)c3)n2)c(-c2cccnc2)n1` [Example 152, 4-(1-Ethyl-3-(pyridin-3-yl)-1H-pyrazol-4-yl)-N-(3-fluoro-4-(piperazin-1-yl)phenyl)pyrimidin-2-amine], the IC50 turned out to be 7.2 nM in assay [1] and 15 nM at human ALK2. Besides, the inhibition at 0.3 µM on human ALK3 came out at 53%; on human ALK6, 82%.
As to `CCn1cc(-c2ccnc(Nc3ccc(N4CCNCC4)nc3)n2)c(-c2cccnc2)n1` [Example 155, 4-(1-Ethyl-3-(pyridin-3-yl)-1H-pyrazol-4-yl)-N-(6-(piperazin-1-yl)pyridin-3-yl)pyrimidin-2-amine], the concentration for half-maximal inhibition (IC50) worked out at 8.5 nM in assay [1] and 57 nM on human ALK2. Besides, the inhibition at 0.37 µM on human ALK3 (ALK3, test compound 370 nM (asterisk footnote), read-out: inhibition rate at 370 nM) was 48.8%; on human ALK6 (ALK6, test compound 370 nM (asterisk footnote), read-out: inhibition rate at 370 nM), 86.5%.
With `CCn1cc(-c2ccnc(Nc3ccc(C4CCNCC4)cc3)n2)c(-c2cccnc2)n1` [Example 162, 4-(1-Ethyl-3-(pyridin-3-yl)-1H-pyrazol-4-yl)-N-(4-(piperidin-4-yl)phenyl)pyrimidin-2-amine], the 50% inhibitory concentration (IC50) in assay [1] was found to be 4.5 nM; against human ALK2 it was 25 nM. The inhibition at 0.3 µM is 49.5% on human ALK3 and 94.2% at human ALK6.
The matching figures for `CCn1cc(-c2ccnc(Nc3ccc(-c4cnn(C5CCNCC5)c4)cc3)n2)c(-c2cccnc2)n1` [Example 167, 4-(1-Ethyl-3-(pyridin-3-yl)-1H-pyrazol-4-yl)-N-(4-(1-(piperidin-4-yl)-1H-pyrazol-4-yl)phenyl)pyrimidin-2-amine]: 12.4 nM, 36.1 nM, 67.5% and 92.2%.
The corresponding values for `CCn1cc(-c2ccnc(Nc3ccc4c(c3)CCNC4)n2)c(-c2cccnc2)n1` [Example 168, N-(4-(1-ethyl-3-(pyridin-3-yl)-1H-pyrazol-4-yl)pyrimidin-2-yl)-1,2,3,4-tetrahydroisoquinolin-6-amine] are 1.5 nM, 43 nM, 67.3% and 93.9%.
As to `CCn1cc(-c2ccnc(Nc3ccc4c(c3)CNCC4)n2)c(-c2cccnc2)n1` [Example 169, N-(4-(1-ethyl-3-(pyridin-3-yl)-1H-pyrazol-4-yl)pyrimidin-2-yl)-1,2,3,4-tetrahydroisoquinolin-7-amine], the concentration for half-maximal inhibition (IC50) in assay [1] is 1.6 nM; against human ALK2 it was 18 nM. The inhibition at 0.3 µM at human ALK3 worked out at 66.6%; at human ALK6, 96.5%.
The corresponding values for `CCn1cc(-c2ccnc(Nc3ccc4c(c3)CCNCC4)n2)c(-c2cccnc2)n1` [Example 171, N-(4-(1-Ethyl-3-(pyridin-3-yl)-1H-pyrazol-4-yl)pyrimidin-2-yl)-2,3,4,5-tetrahydro-1H-benzo [d] azepin-7-amine] are 1.3 nM, 17 nM, 67.1% and 98.3%.
The corresponding values for `CCn1cc(-c2ccnc(Nc3ccc4c(c3)CCN(C(=O)CO)C4)n2)c(-c2cccnc2)n1` [Example 175, 1-(6-((4-(1-Ethyl-3-(pyridin-3-yl)-1H-pyrazol-4-yl)pyrimidin-2-yl)amino)-3,4-dihydroisoquinolin-2(1H)-yl)-2-hydroxyethan-1-one] are 10.8 nM, 46.8 nM, 74.6% and 93.6%.
The corresponding values for `CCn1cc(-c2ccnc(Nc3ccc(N4CCC(C)(N)CC4)cc3)n2)c(-c2cccnc2)n1` [Example 176, N-(4-(4-amino-4-methylpiperidin-1-yl)phenyl)-4-(1-ethyl-3-(pyridin-3-yl)-1H-pyrazol-4-yl)pyrimidin-2-amine] are 7.3 nM, 66 nM, 62.4% and 88.5%.
As for `CCn1cc(-c2ccnc(Nc3ccc4c(c3)CN(CCO)CC4)n2)c(-c2cccnc2)n1` [Example 179, 2-(7-((4-(1-ethyl-3-(pyridin-3-yl)-1H-pyrazol-4-yl)pyrimidin-2-yl)amino)-3,4-dihydroisoquinolin-2(1H)-yl)ethan-1-ol], the IC50 in assay [1] worked out at 5.7 nM; at human ALK2 it was 31 nM. The inhibition at 0.3 µM on human ALK3 was determined as 62.4%; on human ALK6, 94.3%.

A word on the IC50: it is the concentration at which inhibition is half-maximal. Usually inhibition stands for the change of the read-out against control, counted positive when it falls.

The values above are taken from patent US10954216B2, “BMP-signal-inhibiting compound” (RIKEN, priority 2016, dated 2021).
